Patent publication EP0751957B1, “PEPTIDE FRAGMENTS OF MICROBIAL STRESS PROTEINS AND PHARMACEUTICAL COMPOSITION MADE THEREOF FOR THE TREATMENT AND PREVENTION OF INFLAMMATORY DISEASES” (priority 1994, dated 2004)

Columns and labels:
Type in all cases: cell-based, Lewis rats
[1] = test system: primed lymph node cells (PLNC); assay: T cell proliferation assay, PLNC from peptide-immunised rats; settings: PLNC 10 days after immunisation with peptide 176-190 (100 µg/DDA); in vitro peptide 20 µg/ml
Description: (§1) Immunisations with synthetic peptides and primed lymph node populations: Rats were immunised with 50 µg of synthetic peptide in PBS/DDA in each hind footpad (i.e. 50 µg/footpad, 100 µg/rat). Ten days later, draining popliteal lymph nodes were removed, disaggregated, washed three times and used as a source of primed lymph node cells (PLNC). In some experiments, PLNC were derived as pooled inguinal and popliteal lymph nodes from AA rats 35-42 days post Mt immunisation.
(§2) T cell proliferation assays: PLNC were cultured in triplicate in 200 µl flat bottom microtitre wells (Costar) at 2 x 10^5 cells per well with or without antigen. In initial experiments PLNC were tested for responsiveness to individual peptides at concentrations of 5 and 20 µg/ml, and Mt, hsp65 and PPD over a range of concentrations. Concanavalin A (2 µg/ml) was used as a positive control for T cell proliferation. Cultures were incubated for 96 h at 37°C in a humidified atmosphere of 5% CO2. Cultures were pulsed for the final 16 h with [^3H] TdR (Amersham, U.K., 1 uCi/well) and TdR uptake measured using a liquid scintillation β counter. Assays using T cell lines were performed as above using 2 x 10^4 line cells per well with irradiated (30 Gy) syngeneic accessory cells (either 3 x 10^5 splenocytes/well or 10^6 thymocytes/well). Results are expressed as mean counts per minute (cpm) of triplicate cultures. In experiments where responses to Ag were low, responses were considered significant if the stimulation index (S.I. = […]) was greater than two and Student's t tests gave p < 0.01.
To determine whether immunisation of rats with synthetic peptides was effective at priming for T cell reactivity to hsp65 epitopes, in vitro proliferative responses following immunisation with 100 µg of peptide each containing individual T cell epitopes were examined. PLNC isolated ten days after immunisation were tested for response to the immunising peptide, overlapping peptides and to hsp65 (Table II). PLNC responses were observed after immunisation with seven of the nine peptides. Responses were not seen after immunisation with peptides 386-400 and 511-525.
(§3) T cell responses by immunisation with hsp65 peptides. Rats were immunised with synthetic peptides containing individual hsp65 epitopes (100 µg peptide/DDA per rat). Ten days later PLNC were isolated and tested for responses to overlapping peptides (20 µg/ml). Peptide-specific T cell lines were generated by bulk in vitro stimulation of PLNC with immunising peptide. Lines were tested for responses to overlapping peptides (10 µg/ml). […] Results are expressed as mean cpm of triplicate cultures. All SEM were less than 20%.

[2] = test system: Peptide-specific T cell lines; assay: T cell proliferation assay, peptide-specific T cell lines from peptide-immunised rats; settings: T cell line from 176-190-immunised PLNC; in vitro peptide 10 µg/ml
Description: as §2
T cell lines: T cell lines with specificity for mycobacterial hsp65 or peptides were generated by bulk stimulation of either hsp65-PLNC or Mt-PLNC. PLNC were cultured at 5 x 10^6/ml in culture medium supplemented with 2% normal rat serum (NRS) in the presence of 10 µg/ml Ag. After three days viable cells were harvested using a ficoll-isopaque gradient and cultured for a further four days in culture medium + 5% FCS and 5% TCGF (Con A-activated rat spleen supernatant). Seven days after initial stimulation lines were restimulated with irradiated spleen accessory cells and 10 µg/ml Ag in culture medium + NRS. Lines were maintained ir. this seven day restimulation cycle. Short term epitope-specific T cell lines were also generated from rats immunised with synthetic peptides. Peptide-PLNC were cultured as above in the presence of 10 µg/ml peptide.
Bulk stimulation generated T cell lines to eight of the nine peptides tested. These eight lines were tested for specificity after four in vitro restimulations (Table II). All responded to the immunising peptide and, to some extent, to hsp65.
as §3

hsp65-PLNC = assay: T cell proliferation assay, hsp65-PLNC; settings: PLNC from hsp65-immunised rats; peptides 5 and 20 µg/ml
Description: (§4) Immunisations and primed lymph node populations: Rats were immunised with either Mt or hsp65. Mt was suspended at 5 mg/ml in IFA or DDA and 100 µl injected in each hind footpad (i.e. 500 µg/footpad, 1 mg/rat). Hsp65 (1 mg/ml in PBS) was mixed 1:1 with DDA and 100 µl injected (i.e. 50 µg/footpad, 100 µg/rat). Ten to 21 days later, draining popliteal lymph nodes were removed, disaggregated, washed three times and used as a source of primed lymph node cells (PLNC). In control experiments splenocytes and lymph nodes from unimmunised rats and PLNC from rats immunised with IFA or DDA/PBS alone were used.
as §2
Hsp65-PLNC were analysed for responsiveness to a panel of peptides covering the entire sequence of hsp65 (Fig. 3a). […] In terms of magnitude of response, three regions of the molecule (residues 176-190, 211-230 and 221-240) appeared to contain the "dominant" T cell epitopes, while regions 86-100. 251-270, 396-410 and 506-525 contained "subdominant" or minor epitopes.

[3] = test system: hsp65-specific T cell line; assay: T cell proliferation assay, hsp65-specific T cell line; settings: short term lines from ten day hsp65-PLNC, seven days after first restimulation
Description: as §2
T cell lines: T cell lines with specificity for mycobacterial hsp65 or peptides were generated by bulk stimulation of either hsp65-PLNC or Mt-PLNC. PLNC were cultured at 5 x 10^6/ml in culture medium supplemented with 2% normal rat serum (NRS) in the presence of 10 µg/ml Ag. […]

Mt-PLNC = assay: T cell proliferation assay, Mt-PLNC; settings: PLNC from rats immunised with Mt mixed with DDA
Description: as §4
T cell proliferation assays: PLNC were cultured in triplicate in 200 µl flat bottom microtitre wells (Costar) at 2 x 10^5 cells per well with or without antigen. In initial experiments PLNC were tested for responsiveness to individual peptides at concentrations of 5 and 20 µg/ml, and Mt, hsp65 and PPD over a range of concentrations. Concanavalin A (2 µg/ml) was used as a positive control for T cell proliferation. Cultures were incubated for 96 h at 37°C in a humidified atmosphere of 5% CO2. Cultures were pulsed for the final 16 h with [^3H] TdR (Amersham, U.K., 1 uCi/well) and TdR uptake measured using a liquid scintillation β counter. […] Results are expressed as mean counts per minute (cpm) of triplicate cultures. […]

[4] = test system: PLNC from preimmunised rats; assay: T cell proliferation assay, PLNC of peptide-preimmunised AA rats 42 days after Mt; settings: 42 days after Mt administration
Description: as §1, §2
PLNC from preimmunised rats were tested for responsiveness to hsp65 epitopes 42 days after Mt administration (Fig. 8). […] Responses to peptide 176-190 containing the AA-associated epitope were found in all PLNC populations (and enhanced after 176-190 preimmunisation) with one exception.

Substance: peptide 176-190: synthetic 15mer of mycobacterial hsp65 containing the AA-associated epitope 180-188
- CPM PLNC [1]: 57707 cpm
- CPM T Cell Line [2]: 31400 cpm
- hsp65-PLNC proliferative response to peptide (hsp65-PLNC): dominant
- hsp65-specific T cell line response to peptide [3]: strong responses
- Mt/DDA-PLNC response to hsp65 peptide (Mt-PLNC): dominant
- PLNC response to peptide, rats preimmunised with PBS/DDA alone [4]: significant responses
- PLNC response to peptide, rats preimmunised with peptide 256-270 ([4]; rats protected from AA): total lack of response
